Experiments:
[1] = system: Swiss 3T3 fibroblast cells; assay: Adhesion and electrically or peptide-triggered release of cells on patterned RGD monolayer; format: cell-based
Procedure: The substrate was patterned into two regions that each presented the RGD peptide at a density of less than 0.1% mixed with tri(ethylene glycol) groups. The pattern was formed by applying an alkanethiol solution (corresponding to FIG. 5A) for 5 min to a gold-coated glass substrate, half of which was blocked with a polydimethylsiloxane mask. Following rinsing, the mask was removed, and the substrate was incubated in a solution of a second alkanethiol (corresponding to FIG. 5B) for 6 h. In all cases, the monolayers were formed from ethanolic solutions containing a mixture of an alkanethiol substituted with tri(ethylene glycol) and an alkanethiol substituted with either RGD or the RGD containing alkanethiol of the present invention, in a ratio of 999: 1. The two regions differed only in the linkage used to tether the peptides to the monolayer (C. Roberts, C. S. Chen, M. Mrksich, V. Martichonok, D. E. Ingber, G. M. Whitesides, J. Am. Chem. Soc. 1998, 120, 6548-6555; and B. T. Houseman, M. Mrksich, J. Org. Chem. 1998, 63, 7552-7555).
This substrate was placed into cell culture media and a suspension of Swiss 3T3 fibroblast cells was added. The Swiss Albino 3T3 cells (ATCC, Rockville, Md.) were grown in Dulbecco's Modified Eagle Medium (DMEM) containing 10% fetal bovine serum and penicillin/streptomycin. All cultures were maintained at 37° C. in a humidified 10% CO2 atmosphere. […]

streptavidin = assay: SPR measurement of streptavidin association with the biotin-presenting monolayer; format: binding; details: biotin 140 μM mixed with streptavidin before introduction to the SAM
Description: The following sequence was used to measure the association of proteins to the monolayers: buffer (phosphate buffered saline, pH 7.4) was flowed over the monolayer for three minutes to establish a baseline; a solution of protein in the same buffer was flowed over the surface for eight minutes to observe binding; buffer was again flowed for four minutes to quantitate the amount of protein that remained bound. […] (SPR measures the angle of light (θ) reflected from the backside of the gold substrate that is a minimum in intensity. Changes in this angle (Δθ) are linearly related to the index of refraction of the solution above the surface and therefore to the density of adsorbed protein (Δθof 0.10°=1 ng/mm^2). Experiments show a change in θ immediately following protein injection due to differences in refractive index between the two solutions.) The change in resonance angle (Δθ) after streptavidin was flowed over the substrate corresponds to a final protein density of 1.1 ng/mm^2. The protein remained irreversibly bound because of the high affinity of the streptavidin-biotin complex.
Electrochemistry was performed in buffered water (PBS, pH 7.4) using the gold substrate as the working electrode, a platinum wire as the counter electrode, and a Ag/AgCl/KCl reference electrode—prior to mounting the substrate in a cartridge for analysis by SPR. […]

| Compound | cells released from the surface by soluble peptide ([1]; 2 mM in fresh media, 37° C. for 20 minutes, after electrical treatment) | detachment of cells by soluble peptide prior to electrical treatment ([1]; patterned substrate, both regions, prior to electrical treatment) | binding of streptavidin to the SAM when streptavidin was mixed with biotin (streptavidin) |
| --- | --- | --- | --- |
| Gly-Arg-Gly-Asp-Ser (GRGDS; printed: Gly-Arg-Gly-Asp-Ser) | greater than 95% | near complete detachment of cells from both regions |  |
| O=C(O)CCCC[C@@H]1SC[C@@H]2NC(=O)N[C@@H]21 [biotin] |  |  | no binding of the protein to the surface |

— patent US6764768B2, “Controlled release composition” (Arch Development Corporation, priority 2001, dated 2004)
